Assay results published in patent US8563580B2, “Flavivirus inhibitors and methods for their use” (Georgetown University, priority 2008, dated 2013).

Test system: WNV protease
Experiment: High Throughput Screen (HTS) protease assay
Format: biochemical, West Nile virus (EG101 strain)
Details: 100 nl of 5 mg/ml compound in DMSO per 30.1 μl well; substrate Boc-Gly-Lys-Arg-AMC 50 μM; DMSO controls = 100% activity
Description: Procedures for expression and purification of WNV (EG101 strain) were similar to those described elsewhere by Mueller et al., Int. J. Biochem. Cell. Biol., 39: 606-14 (2007). Briefly, E. coli Top10 F′ cells (Invitrogen, Carlsbad, Calif.) were transformed with the protease expression plasmid. Cells were grown at 37° C. until the OD600 was ˜0.5. Cells were then induced with isopropyl-1-thio-β-D-galactopyranoside (American Bioanalytical, Natick, Mass.) (0.5 mM), and incubated for 4 h at 37° C. Cells were harvested by centrifugation (5000×g) for 15 min at 4° C., washed once with a buffer containing 50 mM Tris-HCl, pH 7.5, and 200 mM NaCl, centrifuged at 5000×g for 15 min at 4° C., and stored at -80° C. until used.
Proteases were purified by suspending bacterial pellets in 50 mM Hepes, pH 7.0, 500 mM NaCl, (buffer A) with 0.05 mg/ml lysozyme. Cells were incubated for 30 min on ice after addition of 10% stock solution of Triton X-100 (final concentration of 0.5%). Cells were disrupted by sonication for 2 min and the soluble fraction was collected after centrifugation (15,000×g) for 30 min at 4° C. The soluble fraction was incubated for 1 h at 4° C. with Talon resin (BD Bioscience, San Jose, Calif.) which was pre-equilibrated in buffer A. The affinity resin was centrifuged at (400×g) for 10 min at 4° C., washed three times with buffer A, and packed into a column. Washing of the column was continued with the buffer A containing 10 mM imidazole, followed by elution of the protease with buffer A containing 150 mM imidazole. The protease was concentrated and further purified by Sephadex G-75 gel filtration chromatography. The purified protease fractions were pooled and dialyzed against a buffer containing 50 mM Tris-HCl pH 7.5 and 300 mM NaCl (4×1 L). Aliquots (100 μl) were frozen at −80° C.
The protease assay (100 μl) described by Mueller et al., Int. J. Biochem. Cell. Biol. 39: 606-14 (2007) was adapted for a 384-well plate format (30.1 μl). Microtiter plates were loaded sequentially with 14 μl of the reaction buffer containing 200 mM Tris-HCl, pH 9.5, and 30% glycerol (TG buffer) using an automated Wellmate (Matrix, Hudson, N.H.) and 6 μl of WNV protease (0.05 μM) (as prepared above) in TG buffer containing 15 mM NaCl (3 mM final concentration). Plates were then centrifuged at 1000×g for 3 min at room temperature to mix samples and pool liquids at the bottom of the wells. Inhibitor compounds (100 nl of 5 mg/ml in dimethyl sulfoxide; DMSO) were added to each well in duplicate by a pin-transfer mechanism of a robotic delivery system. The final inhibitor concentrations in the assays varied due to different molecular weights of the compounds from the libraries that were screened. Plates were incubated at room temperature to allow for formation of protease/inhibitor complexes. The fluorogenic substrate, t-butyl-oxycarbonyl(Boc)-Gly-Lys-Arg-7-amino-4-methyl coumarin (AMC) (10 μl in TG buffer; 50 μM final concentration in the reaction mixture), was added using the Wellmate, and the plates were centrifuged for 3 min at 1000×g and incubated at room temperature for 15 min. Fluorescence was measured at excitation and emission wavelengths of 385 nm and 465 nm, respectively, on a Perkin-Elmer (Waltham, Mass.) spectrofluorometer. To validate the assay conditions, aprotinin (bovine pancreatic trypsin inhibitor, BPTI) was used as a positive control. Assay mixtures containing DMSO were used as negative controls. The average of fluorescence values in duplicate wells for a given compound was used to determine the percent activity by taking the values obtained with DMSO controls as 100%. Compounds 1-11, 18-32, and 37-101 above were identified. […] Compounds 12-17 are compounds related to those identified in the HTS screen that also show significant WNV protease inhibition, i.e., >95%.

Row | Structure (SMILES) | % Inhibition (reduction in protease activity) [%]
1 | COc1ccc(C(NC(=O)c2ccccc2)c2ccc3cccnc3c2O)cc1 (stereo not shown) [Compound 1] | 86
2 | O=C(NC(c1ccccc1Cl)c1ccc2cccnc2c1O)c1ccccc1 (stereo not shown) [Compound 2] | 85
3 | COC(=O)c1ccc(C(Nc2ccccn2)c2ccc3ccc(C)nc3c2O)cc1 (stereo not shown) [Compound 3] | 84.5
4 | Cc1ccc2ccc(C(Nc3ccccn3)c3ccc4c(c3)OCO4)c(O)c2n1 (stereo not shown) [Compound 4] | 83
5 | C=CCOc1cccc(C(Nc2cccc(C)n2)c2ccc3cccnc3c2O)c1 (stereo not shown) [Compound 5] | 81
6 | CN(C)c1ccc(C(Nc2nccs2)c2ccc3cccnc3c2O)cc1 (stereo not shown) [Compound 6] | 76
7 | CCCCC(=O)NC(c1cccs1)c1cc(Cl)c2cccnc2c1O (stereo not shown) [Compound 7] | 76
8 | Oc1c(C(Nc2ccccn2)c2ccccc2)ccc2cccnc12 (stereo not shown) [Compound 8] | 75
9 | Oc1c(C(Nc2nccs2)c2ccc(F)cc2)ccc2cccnc12 (stereo not shown) [Compound 9] | 74
10 | Cc1cc(NC(c2cccc(Br)c2)c2ccc3cccnc3c2O)no1 (stereo not shown) [Compound 10] | 70
11 | Oc1c(C(c2ccc(Cl)cc2)N2CCOCC2)cc(Cl)c2cccnc12 (stereo not shown) [Compound 11] | 65
12 | Cc1ccnc(NC(c2ccccc2O)c2ccc3cccnc3c2O)c1 (stereo not shown) [Compound 12] | >95
13 | Oc1c(C(Nc2nccs2)c2ccccc2)ccc2cccnc12 (stereo not shown) [Compound 14] | >95
14 | Cc1cccc(NC(c2ccccc2OCc2ccccc2)c2ccc3cccnc3c2O)n1 (stereo not shown) [Compound 15] | >95
15 | CCN1C(=O)/C(=C/c2ccc(NC(=O)c3ccccc3Br)cc2)SC1=S [Compound 18] | 83.5
16 | CC(/C=C1\SC(=S)N(CC(=O)Nc2ccccn2)C1=O)=C\c1ccccc1 [Compound 19] | 76.5
17 | O=C(CCCN1C(=O)/C(=C/C=C/c2ccccc2)SC1=S)Nc1ccccn1 [Compound 21] | 74
18 | CC(/C=C1\SC(=S)N(CC(=O)Nc2cccnc2)C1=O)=C\c1ccccc1 [Compound 22] | 72.5
19 | CC(/C=C1\SC(=S)N(CCCC(=O)Nc2cccnc2)C1=O)=C\c1ccccc1 [Compound 23] | 72
20 | CC1=NC(NC(=O)CCN2C(=O)/C(=C/C(C)=C/c3ccccc3)SC2=S)[SH]=C1 (stereo not shown) [Compound 24] | 70
21 | CC(/C=C1\SC(=S)N(CCC(=O)Nc2ccccc2O)C1=O)=C\c1ccccc1 [Compound 25] | 67
22 | O=C1/C(=C/C2C=CC=[SH]2)SC(=S)N1CC(=O)N(Cc1ccccc1)c1ccccc1 (stereo not shown) [Compound 26] | 67
23 | O=C(CCCN1C(=O)/C(=C/C=C/c2ccccc2)SC1=S)Nc1cccc(F)c1 [Compound 27] | 66
24 | O=C(CCCN1C(=O)/C(=C/C=C/c2ccccc2)SC1=S)Nc1cccc(O)c1 [Compound 28] | 63
25 | Cc1cccc(N2C(=O)/C(=C/c3ccc(O)c(O)c3)SC2=S)c1C [Compound 29] | 58
26 | O=C1NC(=S)S/C1=C\c1ccc(-c2cccc(C(F)(F)F)c2)o1 [Compound 30] | 53

Row | Structure (SMILES) | % Inhibition (reduction in protease activity) [%]
27 | CC(C)N1C(=O)/C(=C2/C(=O)N(CC(=O)O)c3ccc(Br)cc32)SC1=S [Compound 31] | 53
28 | COC(=O)/C=C1\S/C(=N/c2ccc(Cl)cc2)N(c2ccc(Cl)cc2)C1=O [Compound 32] | 59
29 | Clc1ccc(CN2COc3c(cc(Cl)c4cccnc34)C2)cc1 [Compound 37] | 71
30 | CC(Oc1cc(Cl)ccc1Cl)C(=O)N1CCc2ccccc21 (stereo not shown) [Compound 38] | 58
31 | COc1ccc(OCC(=O)OCCN2C(=O)c3ccccc3C2=O)cc1 [Compound 39] | 57
32 | O=C(c1conc1-c1ccccc1)n1cccc1 [Compound 40] | 56
33 | Cn1c(=O)n(CCOc2ccc(Cl)cc2)c2ccccc21 [Compound 41] | 56
34 | O=C1c2ccccc2C(O)(Cc2ccccc2)N1c1ccc2c(c1)OCO2 (stereo not shown) [Compound 42] | 54
35 | O=C1C(c2ccccc2)c2ccccc2N1Cc1ccccc1 (stereo not shown) [Compound 43] | 54
36 | O=C1Nc2ccccc2/C1=C/c1ccccc1N1CCOCC1 [Compound 44] | 52
37 | Cc1ccc(-c2csc(-n3sc4ccccc4c3=O)n2)cc1 [Compound 45] | 52
38 | CCOC(=O)C1C(=O)N(C(=O)c2ccc(OC)cc2)CC1c1ccccc1 (stereo not shown) [Compound 46] | 50
39 | O=C(COc1cccc2ccccc12)N1CCc2ccccc2C1 [Compound 47] | 83
40 | O=c1[nH]c2ccccc2c(O)c1-c1nc2ccccc2s1 [Compound 48] | 67
41 | COC(=O)c1ccc2c(c1)N(Cc1nc(-c3ccccc3C)oc1C)C(=O)C1CCCN21 (stereo not shown) [Compound 49] | 58
42 | O=C1N=c2ccc(S(=O)(=O)N(CCc3ccccc3)Cc3ccccc3)cc2=NC1=O [Compound 50] | 55
43 | C=CCn1c(Cc2ccccc2)nc2c(cnn2-c2ccccc2)c1=O [Compound 52] | 52
44 | COc1ccc(Cc2c(O)nc(SC)n(-c3ccccc3)c2=O)cc1 [Compound 55] | 51
45 | C=CCn1c(SCc2ccc(C(=O)OC)cc2)nc2ccccc2c1=O [Compound 56] | 51
46 | O=C(CC1Sc2ncnn2C1=O)Nc1ccc(Br)cc1 (stereo not shown) [Compound 57] | 58
47 | O=C(Nc1ccc(F)cc1F)c1ccc2c(c1)C(=O)N(Cc1ccco1)C2=O [Compound 58] | 55
48 | CCOC(=O)c1ccc(NC(=O)Cn2ncc3c4ccccc4n(Cc4ccccc4)c3c2=O)cc1 [Compound 59] | 53
49 | O=C(Cn1cnc2ccccc2c1=O)Nc1ccc(Oc2ccccc2)cc1 [Compound 60] | 51
50 | CCOc1cc2c(cc1OCC)C1C(C(=O)NCCCN3CCN(C)CC3)c3ccccc3C(=O)N1CC2 (stereo not shown) [Compound 61] | 51
51 | CC1CCN(S(=O)(=O)c2ccc(NC(=O)/C=C/c3ccco3)cc2)CC1 [Compound 62] | 72
52 | COc1ccc(NC(=O)c2c(N)sc(-c3ccccc3)c2C)cc1 [Compound 63] | 65
